Measurements published in US8551937B2, “Peptide having an extending action for half-life of object peptide in plasma” (priority 2008, dated 2013).
Where a SMILES comes first, the peptide text is derived from it. Bridges are numbered along the chain shown (N, C = ends).

Tests used:
in vivo = conditions: rat; for AUC(0-inf) / C0 / half-life / Cmax / Tmax: male, SD, 0.1 mg/kg
Experimental: Changes in ANP immunoreactivity concentration in plasma when a native ANP and a chimeric peptide (chimeric ANP) to which a half-life-extension peptide was bestowed were administered into vein of rats were investigated.
As a test system, male rats of an SD strain of 7 weeks age (provided from Nippon Charles River) were subjected to the experiment where one group comprised three rats. […] At that time, a rabbit polyclonal antibody (#8) recognizing a ring part of ANP was used as an antibody and ^125I-[Tyr^28] α-hANP was used as a labeling compound.
Pharmacokinetic parameters were calculated from the resulting changes in immunoreactivity concentrations in plasma. At that time, WinNonlin Professional Ver. 4.0.1 (manufactured by Pharsight Corporation, U.S.A.) was used as the analytical software. Method for the calculation of each parameter is mentioned as follows.
Concentration at time 0 (C0; extrapolated value, ng/mL), area under the curve for concentration in plasma vs. time (AUC; ng.min/mL) and quenching half-life (T½; minute(s)) were calculated as follows. C0 was calculated as a value at time by means of extrapolation from the changes in immunoreactivity concentration in plasma at each blood collection period. AUC was calculated by a trapezoidal method using the immunoreactivity concentrations in plasma at all measuring points (t) and an extrapolated value until the infinitive time was determined. T½ was calculated by means of a least-squares method from the inclination of a straight line connecting several points in a disappearing phase of the immunoreactivity concentration in plasma. In the case of a subcutaneous administration, C0 was not determined but the maximum concentration in plasma (Cmax; ng/mL) and the time reaching the maximum concentration in plasma (Tmax; min) were determined.

[1] = Motilin immunoreactivity concentration in plasma, half-life after intravenous administration (Example 8); conditions: male, SD, rat, in vivo, iv, 10 nmol/kg
Experimental: The experiment was carried out using rats into which polyethylene tube (PE-50 manufactured by Clay Adams) was inserted into thigh artery under an anesthetized condition with Nembutal. As to a test system, male SD strain rats (Nippon Charles River) of 7 weeks age were used where one group comprised 3 rats. Human motilin or a derivative thereof in a dose of 10 nmol/kg was administered into tail vein of the rat and the blood before the administration and until 60 minutes after the administration was periodically collected by a polyethylene tube inserted into the thigh artery. To the collected blood were added EDTA (manufactured by Dojin Laboratories) and aprotinin (manufactured by Bayer) as a stabilizer and an anti-coagulant, respectively and the plasma was separated therefrom by centrifugal separation. Motilin immunoreactivity concentration in plasma was measured by a competitive radioimmunoassay (RIA) (FIG. 8). At that time, a rabbit polyclonal antibody (#870623) which specifically recognizes the amino acid numbers 1 to 12 of native motilin shown by SEQ ID No: 102 was used as an antibody and, as a labeled compound, ^125I-[Tyr^7] human motilin was used.

| AUC(0-inf) (in vivo; iv) | C0 (in vivo; iv) | half-life (in vivo; iv) | AUC(0-inf) (in vivo; sc) | Cmax (in vivo; sc) | Tmax (in vivo; sc) | half-life (in vivo; sc) | concentration in plasma as compared with the native ANP (in vivo; iv) | concentration in plasma as compared with the native ANP (in vivo; sc) | half-life [1] | SMILES |
| --- | --- | --- | --- | --- | --- | --- | --- | --- | --- | --- |
| 196 ng·h/mL | 1240 ± 71 ng/mL | 24 ± 2.5 min | 34 ng·h/mL | 63.3 ± 31.8 ng/mL | 5 min | 46.4 ± 8 min | rising concentration in plasma | rising concentration in plasma | – | CC[C@H](C)[C@@H]1NC(=O)[C@H](CCCNC(=N)N)NC(=O)[C@H](CC(=O)O)NC(=O)[C@H](CCSC)NC(=O)[C@H](CCCNC(=N)N)NC(=O)CNC(=O)CNC(=O)[C@H](Cc2ccccc2)NC(=O)[C@@H](N)CSSC[C@@H](C(=O)N[C@@H](CC(N)=O)C(=O)N[C@@H](CO)C(=O)N[C@@H](Cc2ccccc2)C(=O)N[C@@H](CCCNC(=N)N)C(=O)N[C@@H](Cc2ccc(O)cc2)C(=O)N[C@H](C(=O)N[C@@H](CCC(N)=O)C(=O)N[C@@H](CCC(N)=O)C(=O)N[C@@H](CCCNC(=N)N)C(=O)N[C@@H](CCCCN)C(=O)N[C@@H](CCC(=O)O)C(=O)N[C@@H](CO)C(=O)N[C@@H](CCCCN)C(=O)N[C@@H](CCCCN)C(=O)N2CCC[C@H]2C(=O)N2CCC[C@H]2C(=O)N[C@@H](C)C(=O)N[C@@H](CCCCN)C(=O)N[C@@H](CC(C)C)C(=O)N[C@@H](CCC(N)=O)C(=O)N2CCC[C@H]2C(=O)N[C@@H](CCCNC(=N)N)C(=O)O)C(C)C)NC(=O)CNC(=O)[C@H](CC(C)C)NC(=O)CNC(=O)[C@H](CO)NC(=O)[C@H](CCC(N)=O)NC(=O)[C@H](C)NC(=O)CNC1=O [Chimeric ANP (A)] (H-CFGGRMDRIGAQSGLGCNSFRYVQQRKESKKPPAKLQPR-OH; disulfide 1-17; N-terminus and C-terminus assumed) |
| 175 ng·h/mL | 1570 ± 361 ng/mL | 40 ± 12.4 min | 66.4 ng·h/mL | 64.5 ± 40.7 ng/mL | 16.7 min | 57.3 ± 7.1 min | rising concentration in plasma | rising concentration in plasma | – | CC[C@H](C)[C@@H]1NC(=O)[C@H](CCCNC(=N)N)NC(=O)[C@H](CC(=O)O)NC(=O)[C@H](CCSC)NC(=O)[C@H](CCCNC(=N)N)NC(=O)CNC(=O)CNC(=O)[C@H](Cc2ccccc2)NC(=O)[C@@H](NC(=O)[C@H](CCCNC(=N)N)NC(=O)[C@@H]2CCCN2C(=O)[C@H](CCC(N)=O)NC(=O)[C@H](CC(C)C)NC(=O)[C@H](CCCCN)NC(=O)[C@H](C)NC(=O)[C@@H]2CCCN2C(=O)[C@@H]2CCCN2C(=O)[C@H](CCCCN)NC(=O)[C@H](CCCCN)NC(=O)[C@H](CO)NC(=O)[C@H](CCC(=O)O)NC(=O)[C@H](CCCCN)NC(=O)[C@H](CCCNC(=N)N)NC(=O)[C@H](CCC(N)=O)NC(=O)[C@H](CCC(N)=O)NC(=O)[C@@H](N)C(C)C)CSSC[C@@H](C(=O)N[C@@H](CC(N)=O)C(=O)N[C@@H](CO)C(=O)N[C@@H](Cc2ccccc2)C(=O)N[C@@H](CCCNC(=N)N)C(=O)N[C@@H](Cc2ccc(O)cc2)C(=O)O)NC(=O)CNC(=O)[C@H](CC(C)C)NC(=O)CNC(=O)[C@H](CO)NC(=O)[C@H](CCC(N)=O)NC(=O)[C@H](C)NC(=O)CNC1=O [Chimeric ANP (B)] (H-VQQRKESKKPPAKLQPRCFGGRMDRIGAQSGLGCNSFRY-OH; disulfide 18-34; N-terminus and C-terminus assumed) |
| 148 ng·h/mL | 1530 ± 442 ng/mL | 27.2 ± 3.8 min | 56.7 ng·h/mL | 55.1 ± 10.3 ng/mL | 20 min | 37.8 ± 7.8 min | rising concentration in plasma | rising concentration in plasma | – | CC[C@H](C)[C@@H]1NC(=O)[C@H](CCCNC(=N)N)NC(=O)[C@H](CC(=O)O)NC(=O)[C@H](CCSC)NC(=O)[C@H](CCCNC(=N)N)NC(=O)CNC(=O)CNC(=O)[C@H](Cc2ccccc2)NC(=O)[C@@H](NC(=O)[C@@H](NC(=O)[C@H](CCC(N)=O)NC(=O)[C@H](CCC(N)=O)NC(=O)[C@H](CCCNC(=N)N)NC(=O)[C@H](CCCCN)NC(=O)[C@H](CCC(=O)O)NC(=O)[C@H](CO)NC(=O)[C@H](CCCCN)NC(=O)[C@H](CCCCN)NC(=O)[C@@H]2CCCN2C(=O)[C@@H]2CCCN2C(=O)[C@H](C)NC(=O)[C@H](CCCCN)NC(=O)[C@H](CC(C)C)NC(=O)[C@H](CCC(N)=O)NC(=O)[C@@H]2CCCN2C(=O)[C@@H](N)CCCNC(=N)N)C(C)C)CSSC[C@@H](C(=O)N[C@@H](CC(N)=O)C(=O)N[C@@H](CO)C(=O)N[C@@H](Cc2ccccc2)C(=O)N[C@@H](CCCNC(=N)N)C(=O)N[C@@H](Cc2ccc(O)cc2)C(=O)O)NC(=O)CNC(=O)[C@H](CC(C)C)NC(=O)CNC(=O)[C@H](CO)NC(=O)[C@H](CCC(N)=O)NC(=O)[C@H](C)NC(=O)CNC1=O [Chimeric ANP (C)] (H-RPQLKAPPKKSEKRQQVCFGGRMDRIGAQSGLGCNSFRY-OH; disulfide 18-34; N-terminus and C-terminus assumed) |
| – | – | – | – | – | – | – | – | – | 11.6 min | CC[C@H](C)[C@H](NC(=O)[C@@H]1CCCN1C(=O)[C@@H](NC(=O)[C@@H](N)Cc1ccccc1)C(C)C)C(=O)N[C@@H](Cc1ccccc1)C(=O)N[C@H](C(=O)N[C@@H](Cc1ccc(O)cc1)C(=O)NCC(=O)N[C@@H](CCC(=O)O)C(=O)N[C@@H](CC(C)C)C(=O)N[C@@H](CCC(N)=O)C(=O)N[C@@H](CCCNC(=N)N)C(=O)N[C@H](C(=O)N[C@@H](CCC(N)=O)C(=O)N[C@@H](CCC(N)=O)C(=O)N[C@@H](CCCNC(=N)N)C(=O)N[C@@H](CCCCN)C(=O)N[C@@H](CCC(=O)O)C(=O)N[C@@H](CO)C(=O)NCC(=O)N[C@@H](CCCCN)C(=O)N[C@@H](CCCCN)C(=O)N1CCC[C@H]1C(=O)N1CCC[C@H]1C(=O)N[C@@H](C)C(=O)N[C@@H](CCCCN)C(=O)N[C@@H](CC(C)C)C(=O)N[C@@H](CCC(N)=O)C(=O)N1CCC[C@H]1C(=O)N[C@@H](CCCNC(=N)N)C(=O)O)C(C)C)[C@@H](C)O [Chimeric motilin (I)(MG-i19G)] (H-FVPIFTYGELQRVQQRKESGKKPPAKLQPR-OH; N-terminus and C-terminus assumed) |
| – | – | – | – | – | – | – | – | – | 11.5 min | CC[C@H](C)[C@H](NC(=O)[C@@H]1CCCN1C(=O)[C@@H](NC(=O)[C@@H](N)Cc1ccccc1)C(C)C)C(=O)N[C@@H](Cc1ccccc1)C(=O)N[C@H](C(=O)N[C@@H](Cc1ccc(O)cc1)C(=O)NCC(=O)N[C@@H](CCC(=O)O)C(=O)N[C@@H](CC(C)C)C(=O)N[C@@H](CCC(N)=O)C(=O)N[C@@H](CCCNC(=N)N)C(=O)N[C@H](C(=O)N[C@@H](CCC(N)=O)C(=O)N[C@@H](CCC(N)=O)C(=O)N[C@@H](CCCNC(=N)N)C(=O)N[C@@H](CCCCN)C(=O)NCC(=O)NCC(=O)N[C@@H](CCC(=O)O)C(=O)N[C@@H](CO)C(=O)N[C@@H](CCCCN)C(=O)N[C@@H](CCCCN)C(=O)N1CCC[C@H]1C(=O)N1CCC[C@H]1C(=O)N[C@@H](C)C(=O)N[C@@H](CCCCN)C(=O)N[C@@H](CC(C)C)C(=O)N[C@@H](CCC(N)=O)C(=O)N1CCC[C@H]1C(=O)N[C@@H](CCCNC(=N)N)C(=O)O)C(C)C)[C@@H](C)O [Chimeric motilin (II)(MG-i17G2)] (H-FVPIFTYGELQRVQQRKGGESKKPPAKLQPR-OH; N-terminus and C-terminus assumed) |
| 25 ng·h/mL | 993 ± 208 ng/mL | – | 8.92 ng·h/mL | 22.3 ± 5.3 ng/mL | 8.3 min | – | – | – | – | CC[C@H](C)[C@@H]1NC(=O)[C@H](CCCNC(=N)N)NC(=O)[C@H](CC(=O)O)NC(=O)[C@H](CCSC)NC(=O)[C@H](CCCNC(=N)N)NC(=O)CNC(=O)CNC(=O)[C@H](Cc2ccccc2)NC(=O)[C@@H](NC(=O)[C@H](CO)NC(=O)[C@H](CO)NC(=O)[C@H](CCCNC(=N)N)NC(=O)[C@H](CCCNC(=N)N)NC(=O)[C@H](CC(C)C)NC(=O)[C@@H](N)CO)CSSC[C@@H](C(=O)N[C@@H](CC(N)=O)C(=O)N[C@@H](CO)C(=O)N[C@@H](Cc2ccccc2)C(=O)N[C@@H](CCCNC(=N)N)C(=O)N[C@@H](Cc2ccc(O)cc2)C(=O)O)NC(=O)CNC(=O)[C@H](CC(C)C)NC(=O)CNC(=O)[C@H](CO)NC(=O)[C@H](CCC(N)=O)NC(=O)[C@H](C)NC(=O)CNC1=O [Native ANP, reference compound] |
